Numbers after ± are expanded uncertainties.
Conditions: Liquid, Ebulliometric method (Recirculating still)

CCCC(C)O (stereo not given) [pentan-2-ol]
Conditions | vapor or sublimation pressure [kPa]
350.91 K | 18.66 ± 0.041
353.74 K | 21.33 ± 0.043
356.29 K | 24 ± 0.047
358.61 K | 26.66 ± 0.051
361.26 K | 30 ± 0.055
363.69 K | 33.33 ± 0.06
365.92 K | 36.66 ± 0.064
368 K | 40 ± 0.069
370.31 K | 44 ± 0.074
372.45 K | 48 ± 0.079
374.46 K | 52 ± 0.084
376.35 K | 55.99 ± 0.089
378.13 K | 59.99 ± 0.095
380.36 K | 65.33 ± 0.1
382.45 K | 70.66 ± 0.11
384.42 K | 75.99 ± 0.11
386.27 K | 81.33 ± 0.12
388.47 K | 87.99 ± 0.13
390.53 K | 94.66 ± 0.13
391.32 K | 97.33 ± 0.14

CC(C)C(C)O (stereo not given) [3-methyl-2-butanol]
Conditions | vapor or sublimation pressure [kPa]
352.84 K | 28.66 ± 0.057
355.33 K | 32 ± 0.06
357.63 K | 35.33 ± 0.064
359.76 K | 38.66 ± 0.069
361.74 K | 42 ± 0.073
363.6 K | 45.33 ± 0.078
365.69 K | 49.33 ± 0.083
367.65 K | 53.33 ± 0.088
369.5 K | 57.33 ± 0.094
371.24 K | 61.33 ± 0.099
372.9 K | 65.33 ± 0.1
374.99 K | 70.66 ± 0.11
376.95 K | 75.99 ± 0.12
378.81 K | 81.33 ± 0.12
380.58 K | 86.66 ± 0.13
382.26 K | 91.99 ± 0.14
383.87 K | 97.33 ± 0.14
384.45 K | 99.33 ± 0.14

CCC(C)(C)O [2-methylbutan-2-ol]
Conditions | vapor or sublimation pressure [kPa]
335.75 K | 19.33 ± 0.044
339.03 K | 22.66 ± 0.046
341.93 K | 26 ± 0.051
344.54 K | 29.33 ± 0.056
346.91 K | 32.66 ± 0.061
349.1 K | 36 ± 0.066
351.52 K | 40 ± 0.071
353.75 K | 44 ± 0.076
355.83 K | 48 ± 0.082
357.78 K | 52 ± 0.087
359.9 K | 56.66 ± 0.093
361.88 K | 61.33 ± 0.099
364.01 K | 66.66 ± 0.1
366.01 K | 71.99 ± 0.11
367.9 K | 77.33 ± 0.12
369.69 K | 82.66 ± 0.12
371.8 K | 89.33 ± 0.13
373.79 K | 95.99 ± 0.14
374.56 K | 98.66 ± 0.14

CCC(O)CC [3-pentanol]
Conditions | vapor or sublimation pressure [kPa]
342.02 K | 14.66 ± 0.035
345.41 K | 17.33 ± 0.037
348.4 K | 20 ± 0.041
351.07 K | 22.66 ± 0.046
354.07 K | 26 ± 0.05
356.77 K | 29.33 ± 0.054
359.24 K | 32.66 ± 0.058
360.62 K | 34.66 ± 0.063
362.79 K | 38 ± 0.066
364.81 K | 41.33 ± 0.071
367.06 K | 45.33 ± 0.076
369.16 K | 49.33 ± 0.081
371.13 K | 53.33 ± 0.086
372.99 K | 57.33 ± 0.091
374.75 K | 61.33 ± 0.096
376.95 K | 66.66 ± 0.1
379.02 K | 71.99 ± 0.11
380.97 K | 77.33 ± 0.11
382.82 K | 82.66 ± 0.12
385 K | 89.33 ± 0.13
387.06 K | 95.99 ± 0.13
387.65 K | 97.99 ± 0.14

CCC(C)CO (stereo not given) [2-methyl-1-butanol]
Conditions | vapor or sublimation pressure [kPa]
345.51 K | 9.333 ± 0.027
350.44 K | 12 ± 0.029
354.51 K | 14.66 ± 0.032
358.02 K | 17.33 ± 0.037
361.8 K | 20.66 ± 0.041
365.12 K | 24 ± 0.046
368.62 K | 28 ± 0.051
371.74 K | 32 ± 0.056
374.56 K | 36 ± 0.062
377.13 K | 40 ± 0.067
379.5 K | 44 ± 0.073
382.05 K | 48.66 ± 0.078
384.41 K | 53.33 ± 0.084
386.92 K | 58.66 ± 0.09
389.23 K | 63.99 ± 0.097
391.4 K | 69.33 ± 0.1
393.43 K | 74.66 ± 0.11
395.35 K | 79.99 ± 0.12
397.17 K | 85.33 ± 0.12
398.9 K | 90.66 ± 0.13
400.96 K | 97.33 ± 0.13

CC(C)CCO [3-methylbutan-1-ol]
Conditions | vapor or sublimation pressure [kPa]
366.27 K | 22.66 ± 0.047
369.95 K | 26.66 ± 0.049
373.24 K | 30.66 ± 0.055
376.14 K | 34.66 ± 0.061
379.65 K | 40 ± 0.067
382.78 K | 45.33 ± 0.074
385.62 K | 50.66 ± 0.081
388.23 K | 55.99 ± 0.088
390.64 K | 61.33 ± 0.095
392.88 K | 66.66 ± 0.1
395.48 K | 73.33 ± 0.11
397.9 K | 79.99 ± 0.12
400.18 K | 86.66 ± 0.12
402.32 K | 93.33 ± 0.13
403.77 K | 97.99 ± 0.13

Source: the NIST ThermoML archive (doi:10.1016/j.fluid.2010.06.020)
